The nature of this data set: method code SF-AS, from PMID: 7312925.
The logP is a log measure of how a compound divides between an organic and an aqueous phase. High values mean higher lipophilicity, low ones lower lipophilicity. Turning to `Cc1cc(C)c(NN(C=O)Cc2ccccc2)nn1`, the logP is 0.61. Next, `Cc1[nH]n2cnnc2c(=O)c1N=O`: -1.1. Compound `Cc1cc(O)c(N)nn1` came in with a logP of -0.85. Then `Cc1cc(O)c(N2CCOCC2)nn1`, with -0.06; and `Cc1cc(=O)c2nncn2[nH]1`, with -0.21; and `Cc1cc(O)c(Cl)nn1`, with -0.82.

`Cc1cc(S)c(N)nn1`: the log partition coefficient (logP) came out at 0.13. Then `Cc1cc(OCC(=O)O)c(Cl)nn1`, with -1.22; and `Cc1cc(C)c(N/N=C\c2ccccc2)nn1`, with 0.93; and `Cc1[nH]n2cnnc2c(=O)c1N`, with -0.52. Then `CCOc1cc(=O)c2nncn2[nH]1`, with 0.02; and `CC(=O)Nc1nnc(C)cc1O`, with -0.89; and `Cc1cc(O)c(O)nn1`, with -0.3. Consider `Cc1[nH]n2cnnc2c(=O)c1Br`, for which the logP is -0.68. Next, `Cc1cc(O)c(N(C)C)nn1`: 0.24; `Cc1cc(C)c(N)nn1`: -0.32.

(Values after the SangsterLogP compilation.)
